The source made the active and inactive calls.
Key:
[1] = intracellular Trypanosoma cruzi inhibitors in host cells – cell-based, plate reader, cherry-pick samples, set 3, dose response (AID 651818); assay type: functional;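 also: compounds incubated with infected cells for about four days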
[2] = Luminescence Cell-Based Dose Confirmation HTS to Identify Inhibitors of Platelet Dense Granule Release. [Related pubchem assays: 1663 (Primary HTS), 1678 (Summary of Project)]; assay type: functional
[3] = biological target: Luciferin 4-monooxygenase (Photinus pyralis, UniProt P08659); test: firefly luciferase enzyme inhibitors, dose response, biochemical, luminescence (AID 1891)
Prothrombin = Prothrombin (Homo sapiens, UniProt P00734); test: Thrombin 1536 HTS Dose Response Confirmation. [Related pubchem assays: 1046 (Thrombin 1536 HTS; hits were confirmed in this assay)]; assay type: functional
[4] = NIH-3T3 fibroblast cytotoxicity, dose response, cytotoxicity control, cell-based, fluorescence, Alamar Blue, secondary assay (AID 2327); assay type: functional;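 also: NIH-3T3 mouse fibroblasts cultured with fluconazole at 8 µg/mL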
[5] = C. albicans growth with fluconazole, confirmation, fluorescence, retest (AID 2467); assay type: functional, cell-based
[6] = control 3'UTR Renilla luciferase suppression, dose response, counter-screen for Shn3 inhibitor project, cell-based, Clone20-Shn3RL, cherry-picked (AID 624133); assay type: functional
[7] = Shn3 3'UTR reporter inhibitors, dose response, cell-based, Clone20 osteoblasts, firefly luciferase, cherry-picked (AID 624132); assay type: functional;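 also: firefly luciferase luminescence from reporter carrying the Shn3 3'UTR in osteoblasts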
Paired box protein Pax-8 = Paired box protein Pax-8 (Homo sapiens, UniProt Q06710); test: inhibitors of PAX8-driven TPO luciferase reporter, dose response, RMG-I cells, cherry-pick (AID 687027); assay type: functional, cell-based;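 also: luciferase reporter driven by Pax8 target thyroperoxidase promoter measured by SteadyGlo luminescence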
Cytochrome P450 2C9 = Cytochrome P450 2C9 (Homo sapiens, UniProt P11712)
Cytochrome P450 3A4 = Cytochrome P450 3A4 (Homo sapiens, UniProt P08684);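 also: CYP3A4 tested as one member of a cytochrome P450 panel screen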
Streptococcus = test: Group A Streptococcus viability loss, dose response, counter-screen for streptokinase expression inhibitor project, luminescence, BacTiterGlo (AID 1915); assay type: functional, organism-based;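 also: potency for reduction of bacterial viability or growth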
[8] = tested on: Streptococcus sp. 'group A'; test: growth inhibition of control SK(-) GAS strain, dose response, counter-screen for streptokinase expression inhibitor project, luminescence, kanamycin, BacTiterGlo, confirmation (AID 1900); assay type: functional, organism-based
[9] = biological target: T1, Polyadenylate-binding protein 1 (Homo sapiens, UniProt P11940); test: PABP1 MLLE–PAM2 binding inhibitor potency, dose response, biochemical, fluorescence polarization, FITC-PAM2 peptide (AID 602259); assay type: functional; conditions: read-out: IC50_Mean
[10] = biological target: T1, Polyadenylate-binding protein 1; test: PABP1 MLLE–PAM2 interaction inhibitors, dose response, miRNA deadenylation inhibitor project, biochemical, fluorescence polarization, Cy5-PAM2 peptide, secondary (AID 602260); assay type: functional; conditions: read-out: IC50_Mean
Cytochrome P450 1A2 = biological target: T2, Cytochrome P450 1A2 (Homo sapiens, UniProt P05177);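 also: PubChem cytochrome P450 panel assay, CYP1A2 panel member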
T2 sequence (P05177 whole entry): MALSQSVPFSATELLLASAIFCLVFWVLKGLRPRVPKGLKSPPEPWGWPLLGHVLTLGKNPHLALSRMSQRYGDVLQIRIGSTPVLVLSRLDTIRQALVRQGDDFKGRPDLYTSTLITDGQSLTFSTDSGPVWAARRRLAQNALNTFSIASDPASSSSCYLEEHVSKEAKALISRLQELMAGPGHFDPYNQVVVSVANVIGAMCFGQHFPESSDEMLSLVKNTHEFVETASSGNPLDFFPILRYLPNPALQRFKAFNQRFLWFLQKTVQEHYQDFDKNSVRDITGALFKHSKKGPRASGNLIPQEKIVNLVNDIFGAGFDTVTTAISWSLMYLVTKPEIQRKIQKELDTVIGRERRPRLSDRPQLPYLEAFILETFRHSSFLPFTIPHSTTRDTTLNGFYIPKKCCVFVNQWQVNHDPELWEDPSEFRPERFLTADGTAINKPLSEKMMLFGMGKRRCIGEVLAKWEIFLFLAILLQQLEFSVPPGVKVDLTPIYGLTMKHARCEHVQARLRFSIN

Cytochrome P450 2C19 = Cytochrome P450 2C19 (Homo sapiens, UniProt P33261); test: Cytochrome panel assay with activity outcomes. Panel member name: p450-cyp2c19 Compounds with AC50 equal or less than 10 uM are considered active; assay type: functional; conditions: read-out: AC50
[11] = biological target: T3, RNA-binding protein pos-1 (Caenorhabditis elegans, UniProt G5EF15); test: inhibitors of POS-1/mex-3 RNA binding, dose response, biochemical, fluorescence polarization (AID 1964);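 also: purified POS-1 fused to maltose binding protein made in E. coli; potency of compounds blocking POS-1 binding to fluorescent RNA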
T3 sequence (G5EF15 whole entry): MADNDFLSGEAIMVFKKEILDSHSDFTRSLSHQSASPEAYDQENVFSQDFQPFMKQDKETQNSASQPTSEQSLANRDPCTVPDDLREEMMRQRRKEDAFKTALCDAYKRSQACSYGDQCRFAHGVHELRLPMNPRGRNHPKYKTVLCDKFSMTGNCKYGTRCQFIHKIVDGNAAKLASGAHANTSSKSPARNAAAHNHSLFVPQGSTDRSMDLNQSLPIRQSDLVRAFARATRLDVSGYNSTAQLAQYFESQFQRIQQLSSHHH

[12] = biological target: T4, Zinc finger protein mex-5 (Caenorhabditis elegans, UniProt Q9XUB2); test: MEX-5/TCR-2 RNA interaction inhibitors, dose response, biochemical, C. elegans, fluorescence polarization (AID 1960)
T4 sequence (Q9XUB2 whole entry): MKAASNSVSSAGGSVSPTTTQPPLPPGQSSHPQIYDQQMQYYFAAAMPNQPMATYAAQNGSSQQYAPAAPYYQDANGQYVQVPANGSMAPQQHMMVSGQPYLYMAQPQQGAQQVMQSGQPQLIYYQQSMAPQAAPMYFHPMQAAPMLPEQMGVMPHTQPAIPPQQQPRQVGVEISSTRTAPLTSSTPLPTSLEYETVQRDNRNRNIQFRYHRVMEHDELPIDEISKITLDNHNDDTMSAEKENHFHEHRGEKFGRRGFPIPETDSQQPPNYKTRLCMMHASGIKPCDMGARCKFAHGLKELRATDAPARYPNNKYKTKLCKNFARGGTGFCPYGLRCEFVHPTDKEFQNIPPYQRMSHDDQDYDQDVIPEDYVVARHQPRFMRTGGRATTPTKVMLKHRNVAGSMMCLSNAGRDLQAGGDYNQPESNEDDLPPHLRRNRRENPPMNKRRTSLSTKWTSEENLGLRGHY

T1 sequence (P11940 whole entry): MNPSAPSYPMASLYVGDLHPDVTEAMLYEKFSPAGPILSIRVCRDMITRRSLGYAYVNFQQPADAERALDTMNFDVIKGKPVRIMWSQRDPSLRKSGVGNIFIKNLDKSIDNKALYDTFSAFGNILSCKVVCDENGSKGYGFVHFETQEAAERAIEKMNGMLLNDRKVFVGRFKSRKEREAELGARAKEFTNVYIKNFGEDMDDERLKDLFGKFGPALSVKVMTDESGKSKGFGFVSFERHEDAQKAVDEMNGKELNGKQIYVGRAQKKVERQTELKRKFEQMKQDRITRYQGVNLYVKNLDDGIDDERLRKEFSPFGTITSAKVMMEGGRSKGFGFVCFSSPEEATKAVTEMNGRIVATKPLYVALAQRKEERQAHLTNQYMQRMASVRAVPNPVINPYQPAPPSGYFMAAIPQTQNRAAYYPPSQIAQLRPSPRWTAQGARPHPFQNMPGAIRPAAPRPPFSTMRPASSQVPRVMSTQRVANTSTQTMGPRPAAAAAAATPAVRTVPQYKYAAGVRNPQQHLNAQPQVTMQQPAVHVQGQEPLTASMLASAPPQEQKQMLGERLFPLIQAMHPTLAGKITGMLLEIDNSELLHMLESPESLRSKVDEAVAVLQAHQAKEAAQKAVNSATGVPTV
Sequence of Luciferin 4-monooxygenase (P08659 whole entry): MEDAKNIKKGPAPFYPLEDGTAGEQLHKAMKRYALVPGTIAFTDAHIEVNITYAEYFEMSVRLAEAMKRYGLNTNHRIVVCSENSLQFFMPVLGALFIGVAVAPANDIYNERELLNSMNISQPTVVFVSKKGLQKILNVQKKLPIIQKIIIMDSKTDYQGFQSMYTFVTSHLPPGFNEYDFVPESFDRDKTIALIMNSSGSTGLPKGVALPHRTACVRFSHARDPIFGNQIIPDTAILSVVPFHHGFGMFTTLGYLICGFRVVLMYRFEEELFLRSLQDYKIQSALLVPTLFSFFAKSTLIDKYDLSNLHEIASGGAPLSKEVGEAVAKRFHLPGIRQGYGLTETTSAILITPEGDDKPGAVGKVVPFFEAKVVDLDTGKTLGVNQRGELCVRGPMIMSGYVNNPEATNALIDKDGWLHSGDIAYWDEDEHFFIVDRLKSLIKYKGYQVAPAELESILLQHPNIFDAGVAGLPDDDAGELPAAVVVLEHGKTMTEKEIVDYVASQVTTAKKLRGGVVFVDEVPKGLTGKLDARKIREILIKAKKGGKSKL
Sequence of Paired box protein Pax-8 (Q06710 whole entry): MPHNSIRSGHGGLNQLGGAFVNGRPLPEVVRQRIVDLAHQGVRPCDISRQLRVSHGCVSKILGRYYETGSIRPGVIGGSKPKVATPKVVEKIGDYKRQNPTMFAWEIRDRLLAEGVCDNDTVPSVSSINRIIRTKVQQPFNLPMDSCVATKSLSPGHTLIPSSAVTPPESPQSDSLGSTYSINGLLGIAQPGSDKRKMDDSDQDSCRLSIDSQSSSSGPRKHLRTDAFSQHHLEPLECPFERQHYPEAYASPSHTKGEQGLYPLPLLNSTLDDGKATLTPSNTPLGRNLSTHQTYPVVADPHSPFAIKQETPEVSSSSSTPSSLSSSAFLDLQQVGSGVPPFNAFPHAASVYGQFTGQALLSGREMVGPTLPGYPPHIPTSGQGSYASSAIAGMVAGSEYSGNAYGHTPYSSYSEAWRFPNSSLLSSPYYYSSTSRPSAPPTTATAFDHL
Sequence of Cytochrome P450 2C9 (P11712 whole entry): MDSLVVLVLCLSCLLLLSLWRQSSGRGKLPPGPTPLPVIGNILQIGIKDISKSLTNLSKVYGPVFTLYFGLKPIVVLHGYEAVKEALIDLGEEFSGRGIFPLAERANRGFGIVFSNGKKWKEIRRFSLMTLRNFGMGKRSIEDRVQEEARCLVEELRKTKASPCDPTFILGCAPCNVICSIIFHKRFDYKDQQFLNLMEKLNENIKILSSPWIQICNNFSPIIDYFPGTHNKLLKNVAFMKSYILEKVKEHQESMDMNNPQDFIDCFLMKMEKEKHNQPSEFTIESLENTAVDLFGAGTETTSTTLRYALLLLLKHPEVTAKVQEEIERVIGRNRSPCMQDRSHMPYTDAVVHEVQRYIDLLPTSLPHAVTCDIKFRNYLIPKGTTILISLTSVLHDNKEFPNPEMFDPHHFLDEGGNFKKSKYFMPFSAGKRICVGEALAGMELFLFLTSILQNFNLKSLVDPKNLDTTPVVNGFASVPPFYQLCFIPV
Sequence of Cytochrome P450 2C19 (P33261 whole entry, the tested form may be a part): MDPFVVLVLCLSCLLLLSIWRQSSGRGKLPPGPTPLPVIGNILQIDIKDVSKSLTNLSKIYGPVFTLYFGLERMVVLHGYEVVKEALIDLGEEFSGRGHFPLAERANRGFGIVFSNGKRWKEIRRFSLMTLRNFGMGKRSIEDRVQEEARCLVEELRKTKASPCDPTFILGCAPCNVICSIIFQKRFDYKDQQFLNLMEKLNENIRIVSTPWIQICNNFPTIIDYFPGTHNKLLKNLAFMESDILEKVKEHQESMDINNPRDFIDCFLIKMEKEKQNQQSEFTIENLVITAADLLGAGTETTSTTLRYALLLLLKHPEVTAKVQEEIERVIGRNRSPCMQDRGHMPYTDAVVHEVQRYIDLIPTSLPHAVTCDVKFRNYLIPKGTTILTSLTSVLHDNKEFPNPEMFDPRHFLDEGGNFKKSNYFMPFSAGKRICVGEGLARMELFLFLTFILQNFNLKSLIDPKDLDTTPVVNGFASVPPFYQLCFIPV
Sequence of Cytochrome P450 3A4 (P08684 whole entry): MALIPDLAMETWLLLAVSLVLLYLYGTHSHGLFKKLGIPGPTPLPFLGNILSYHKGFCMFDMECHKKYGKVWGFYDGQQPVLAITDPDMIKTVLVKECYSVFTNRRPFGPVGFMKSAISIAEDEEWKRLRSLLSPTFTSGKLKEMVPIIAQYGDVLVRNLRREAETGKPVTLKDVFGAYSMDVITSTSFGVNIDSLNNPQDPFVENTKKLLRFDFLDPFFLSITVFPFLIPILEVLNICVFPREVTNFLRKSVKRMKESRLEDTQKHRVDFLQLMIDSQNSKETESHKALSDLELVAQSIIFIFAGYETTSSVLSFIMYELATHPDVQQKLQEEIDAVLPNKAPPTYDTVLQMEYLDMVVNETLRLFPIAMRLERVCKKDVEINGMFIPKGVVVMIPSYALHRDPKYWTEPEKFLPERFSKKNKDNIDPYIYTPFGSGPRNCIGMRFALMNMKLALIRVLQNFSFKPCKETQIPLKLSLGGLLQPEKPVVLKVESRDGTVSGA

C[C@H](CO)N1C[C@H](C)[C@@H](CN(C)Cc2ccc(C(=O)Nc3ccccc3N)cc2)Oc2c(NC(=O)c3ccc(-c4nccs4)cc3)cccc2C1=O
AC50 [1]: 2.85 µM (active)

C[C@@H](CO)NC(=O)c1ccc2c3n(nc2c1)-c1ccccc1CO3
EC50 [2]: 6.93 µM (active)
EC50 [3]: 16.4 µM (active)

COc1ccc(CNc2nc(-c3cccnc3)nn2C(=O)C(C)C)cc1
IC50 (Prothrombin): 0.167 µM (active)

CC(C)c1nnc(NC(=O)c2cnccn2)s1
IC50 (Prothrombin): > 50 µM (not active)

CC(C)c1ccc(N(CC(=O)N/N=C/c2ccc(OC3CSC3)cc2)S(=O)(=O)c2ccccc2)cc1
IC50 (Prothrombin): > 50 µM (not active)

Nc1nnnn1/N=C/c1cccc(Oc2ccccc2)c1
EC50 [4]: > 150 µM (inactive)
EC50 [5]: > 38 µM (not active)

CCCOc1ccc(CNC(=O)c2ccc3c(c2)N(CC)CCS3)cc1
EC50 [2]: > 112 µM (not active)
EC50 [3]: > 112 µM (not active)

Cc1cc(S(=O)(=O)N2CCCCC2)ccc1OCC(=O)Nc1ccccc1
EC50 [2]: 19.7 µM (active)
EC50 [3]: > 112 µM (not active)

CCC(C)(O)C(=O)OC1C(=O)OC2CC3C(C)=CC(=O)C(O)C3(C)C3C4(O)OCC23C1C(C)C4O (stereo not drawn)
AC50 [6]: 5.79 µM (active)
AC50 [7]: 0.866 µM (active)
AC50 (Paired box protein Pax-8): 0.426 µM (active)

CCOC(=O)C1CCN(/C=N/c2cc(C)on2)CC1
EC50 [2]: > 112 µM (not active)
EC50 [3]: > 112 µM (not active)

CCOC(=O)CSc1n[nH]c(NC(=O)c2cccc(C)c2)n1
IC50 (Prothrombin): 0.586 µM (active)
AC50 (Cytochrome P450 2C9): 25.1 µM (inconclusive)
AC50 (Cytochrome P450 3A4): 5.62 µM (inconclusive)

COc1cc(C(=O)NC(=S)Nc2ccc(NC(=O)c3ccco3)cc2)cc(OC)c1OC
EC50 (Streptococcus): 7.42 µM (active)
EC50 [8]: 14.8 µM (active)
IC50 [9]: > 66 µM (inactive)
IC50 [10]: > 66 µM (inactive)

Cc1ccc(S(=O)(=O)N(C)C[C@@H]2Oc3c(NC(=O)Nc4ccc(C(F)(F)F)cc4)cccc3C(=O)N([C@H](C)CO)C[C@@H]2C)cc1
AC50 [1]: 5.16 µM (active)

C[C@H]1CN([C@@H](C)CO)C(=O)c2cccc(NS(=O)(=O)c3ccc(F)cc3)c2O[C@H]1CN(C)Cc1ccc(C(=O)Nc2ccccc2N)cc1
AC50 [1]: 3.43 µM (active)

O=C(NNC(=S)NC(=O)c1ccccc1[N+](=O)[O-])c1ccc(Cl)cc1Cl
EC50 [4]: > 150 µM (inconclusive)
EC50 [5]: 4.09 µM (active)

CSc1nc(-c2ccccc2)nn1C(=O)c1ccccc1
IC50 (Prothrombin): 0.896 µM (active)
AC50 (Cytochrome P450 2C9): 10 µM (inconclusive)
AC50 (Cytochrome P450 1A2): 2.51 µM (inconclusive)
AC50 (Cytochrome P450 2C19): 0.1 µM (inconclusive)

Cc1nn(-c2ccccc2)c(Cl)c1/C=N/NC(=O)c1[nH]ncc1Br
EC50 [2]: 3.52 µM (active)
EC50 [3]: 0.374 µM (active)

C[C@H]1CN([C@@H](C)CO)C(=O)Cc2cc(NC(=O)Nc3ccc(C(F)(F)F)cc3)ccc2O[C@@H]1CN(C)Cc1ccc(-c2ccccc2)cc1
AC50 [1]: 3.1 µM (active)

C[C@@H]1CN([C@H](C)CO)C(=O)Cc2cc(NC(=O)Nc3ccc(F)cc3)ccc2O[C@H]1CN(C)Cc1ccc(Cl)c(Cl)c1
AC50 (Paired box protein Pax-8): 16.2 µM (active)
AC50 [1]: 4.44 µM (active)

c1ccc(C2=NNC(c3ccccn3)=NN2)nc1
EC50 [11]: 25.3 µM (active)
IC50 [9]: > 66 µM (inactive)
IC50 [10]: > 66 µM (inactive)
EC50 [12]: 22.4 µM (active)

C[C@H]1CN([C@@H](C)CO)C(=O)c2cccc(NC(=O)c3cnccn3)c2O[C@@H]1CN(C)Cc1ccc(C(=O)Nc2ccccc2N)cc1
AC50 [1]: 2.99 µM (active)

CCN(CC)S(=O)(=O)c1cccc(NC(=O)/C=C/c2cccc([N+](=O)[O-])c2)c1
IC50 (Prothrombin): > 50 µM (not active)

Cc1ccc[n+](-c2[nH]c(=O)sc2C=NNC(=O)c2ccccc2[O-])c1
EC50 [11]: 42.4 µM (active)
IC50 [9]: 43.9 µM (inactive)
IC50 [10]: > 66 µM (inactive)
EC50 [12]: 38.5 µM (active)

CC[C@@H]1C=CC=CC[C@H](C)[C@@H](O)[C@@H](C)C(=O)[C@H](C)[C@@H](O)[C@H](C)C(=O)[C@H](C)[C@@H](O)[C@H](C)C=CC(=O)O[C@H]2[C@@H](C)[C@@H](CC1)O[C@@]1(CC[C@@H](C)[C@@H](C[C@H](C)O)O1)[C@@H]2C [OLIGOMYCIN C]
EC50 [4]: 15.6 µM (active)
EC50 [5]: 0.427 µM (active)

C[C@@H]1CN([C@@H](C)CO)C(=O)Cc2cc(NC(=O)Nc3ccc4c(c3)OCO4)ccc2O[C@@H]1CN(C)Cc1ccc(-c2ccccc2)cc1
AC50 [1]: 4.26 µM (active)

O=C(c1ccc(Cl)cc1)C1CCCN(Cc2ccc(Oc3ncccn3)cc2)C1 (stereo not drawn)
EC50 [2]: > 112 µM (not active)
EC50 [3]: > 112 µM (not active)

CCn1c(O)nnc1Sc1nc(C)nc2scc(-c3cccs3)c12
EC50 [4]: > 160 µM (inactive)
EC50 [5]: 0.163 µM (active)

C[C@H]1CN([C@@H](C)CO)C(=O)c2cccc(NC(=O)C3CCCCC3)c2O[C@@H]1CN(C)Cc1ccc(Oc2ccccc2)cc1
AC50 [1]: 4.77 µM (active)

CCCCCCC#Cc1ccc2c(c1)COc1c3ccccc3nn1-2
AC50 [6]: 7.68 µM (active)

COc1ccc(S(=O)(=O)N(C)CC(=O)Nc2ccc3c(c2)OCO3)cc1OC
EC50 [2]: > 112 µM (not active)
EC50 [3]: > 112 µM (not active)

Cc1ccc(C(=O)n2ncn(C)c2=S)cc1
IC50 (Prothrombin): 1.02 µM (active)

C#CCNc1cc(C)nc2ncnn12
IC50 (Prothrombin): > 50 µM (not active)

CC1COC(=O)C(NNc2ccc(Cl)c(Cl)c2)=N1 (stereo not drawn)
EC50 [4]: > 160 µM (inactive)
EC50 [5]: 2.17 µM (active)

COc1ccc(CC(=O)n2nc(-c3ccccc3)nc2NCc2ccco2)cc1
IC50 (Prothrombin): 8.75 µM (active)
